Patent publication US9096593B2, “Compounds and methods for kinase modulation, and indications therefor” (Plexxikon Inc., priority 2009, dated 2015)

Assays:
[1] = Turbidity assay of relative solubility in aqueous buffers; format: physicochemical; settings: for turbidity threshold (L, M, H) 1.4: pH 1.4 as headed (method: SGF pH 1.5); for turbidity threshold (L, M, H) 4.5: pH 4.5 (SIF); for turbidity threshold (L, M, H) 6.8: pH 6.8 (SIF); for turbidity threshold (L, M, H) 7.4: pH 7.4 (HEPES)
Procedure, shortened: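 Turbidity was read spectrophotometrically at 490, 535 and 650 nm, and the endpoint is the concentration where OD passes 0.01, as the mean of the three wavelengths. Compounds came from 25 mM DMSO stock in 1:1 serial dilutions, added to HEPES pH 7.4, SIF pH 6.8 or 4.5 (0.05M NaH2PO4), or SGF pH 1.5 (0.5M NaCl).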

BCR-KIT/BaF3 cells = BCR-KIT/BaF3 cells (Homo sapiens, UniProt P10721); assay: BCR-KIT/BaF3 cell proliferation assay (ATPlite); format: cell-based; settings: read-out: BCR/BaF3 (IC50 μM) Kit
Sequence of BCR-KIT/BaF3 cells (P10721 26-976 limits assumed, change not shown): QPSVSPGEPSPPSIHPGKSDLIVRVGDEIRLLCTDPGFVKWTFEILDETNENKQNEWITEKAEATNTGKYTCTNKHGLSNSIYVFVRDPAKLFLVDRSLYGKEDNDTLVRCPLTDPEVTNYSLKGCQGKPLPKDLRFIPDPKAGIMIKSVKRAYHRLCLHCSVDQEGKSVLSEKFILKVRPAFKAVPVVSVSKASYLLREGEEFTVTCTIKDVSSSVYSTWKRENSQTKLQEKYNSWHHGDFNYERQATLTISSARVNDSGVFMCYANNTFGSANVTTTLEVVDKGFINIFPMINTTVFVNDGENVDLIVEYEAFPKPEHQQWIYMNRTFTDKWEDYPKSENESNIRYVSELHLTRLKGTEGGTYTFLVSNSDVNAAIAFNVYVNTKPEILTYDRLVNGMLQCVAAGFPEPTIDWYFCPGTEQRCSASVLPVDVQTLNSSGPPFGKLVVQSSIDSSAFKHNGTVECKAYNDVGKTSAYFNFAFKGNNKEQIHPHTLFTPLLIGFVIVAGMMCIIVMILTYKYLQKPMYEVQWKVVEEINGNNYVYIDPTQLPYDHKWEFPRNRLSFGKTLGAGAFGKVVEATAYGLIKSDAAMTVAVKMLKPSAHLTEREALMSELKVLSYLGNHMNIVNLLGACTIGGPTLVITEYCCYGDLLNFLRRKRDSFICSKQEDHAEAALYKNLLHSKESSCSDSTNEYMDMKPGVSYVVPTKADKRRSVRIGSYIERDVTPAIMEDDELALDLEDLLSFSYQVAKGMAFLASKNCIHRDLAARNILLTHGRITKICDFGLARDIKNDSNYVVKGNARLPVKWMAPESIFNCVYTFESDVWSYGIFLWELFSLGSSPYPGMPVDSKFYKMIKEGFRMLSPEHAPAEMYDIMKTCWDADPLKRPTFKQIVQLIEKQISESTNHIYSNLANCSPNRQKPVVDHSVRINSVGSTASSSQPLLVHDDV
Experimental: Compounds are assessed in a variety of cell based assays. For example BCR-FMS/BaF3, BCR-KIT/BaF3, M-NFS-60, M-07e, and BAC1.2F5 cell proliferation assays are used to assess inhibitory activity of Fms or Kit and MV-4-11 cell proliferation assay is used to assess inhibitory activity in Flt-3. Reagent and assay conditions are as follows: • BCR-FMS/BaF3 and BCR-KIT/BaF3 cells: • Maintained in RPMI containing 10% FBS, 1% PenStrep, 1% NEAA, and 1% L-Glutamine, supplemented with 1 mg/mL G418 and 5% WEHI-CM (or recombinant murine IL-3). • Confluent cells are split 1:50 to 1:100 every 3-4 days. • M-NFS-60 cells (ATCC #CRL-1838): • Maintained in RPMI containing 10% FBS, 1% Hepes, 1% NaPyruvate, and 0.45% Glucose, supplemented with 62 ng/mL murine M-CSF. • Confluent cells are split 1:20 every 3-4 days. • M-07e cells (DSMZ #ACC 104): • Maintained in IMDM containing 10% FBS, supplemented with either 200 ng/mL human SCF or […] SCF (R&D Systems 255-SC). • Confluent cells are split 1:5 to 1:10 every 3-4 days. • BAC1.2F5 cells: • Maintained in Alpha-MEM containing 10% Newborn Calf Serum (Invitrogen #26010-074) supplemented with 36 ng/mL murine M-CSF. • Confluent cells are split 1:4 every 3-4 days. • MV-4-11 cells: • Maintained in Iscove's Modified Dulbecco's Medium containing 10% FBS. • Confluent cells are split 1:4 every 3-4 days. On day 1, cells are counted, then centrifuged in a conical tube for 5 minutes at 1000 rpm. The supernatant is removed and cells are re-suspended as follows: • BCR-FMS/BaF3 and BCR-KIT/BaF3: resuspend in growth media+1 mg/mL G418 (without WEHI/IL-3) to 2×10^5 cells/mL. • M-NFS-60: resuspend in growth media +62 ng/mL murine M-CSF to 5×10^5 cells/mL. • M-07e: resuspend in growth media +200 ng/mL human SCF to 5×10^5 cells/mL. • BAC1.2F5: resuspend in growth media +36 ng/mL murine M-CSF to 1.4×10^5 cells/mL. • MV-4-11: resuspend in growth media +10% FBS to 5×10^5 cells/mL. The cells are plated (50 μL) in each well of a 96-well dish (Corning 3610) and incubated at 37° C. in 5% CO2 overnight, cells plated to a final concentration of cells as follows: • BCR-FMS/BaF3 and BCR-KIT/BaF3: 10,000 cells per well. • M-NFS-60: 25,000 cells per well. • M-07e: 25,000 cells per well. • BAC1.2F5: 7,000 cells per well. • MV-4-11: 25,000 cells per well. On day 2, compound at a maximum concentration of 5 mM is serially diluted 1:3 for a total of 8 point titration with DMSO as a control. A 1 μL aliquot of each dilution point is added to 249 μL growth media and 50 μL is added to a well containing cells, providing 10 μM compound for the maximum concentration point. The cells are incubated for 3 days at 37° C. in 5% CO2. On day 5, ATPlite 1 step Luminescence Assay System (Perkin Elmer #6016739) is brought to room temperature along with the cell cultures. ATPlite is added to each well as follows: • BCR-FMS/BaF3 and BCR-KIT/BaF3: 25 μL per well. • M-NFS-60: 25 μL per well. • M-07c: 40 μL per well. • BAC1.2F5: 50 μL per well. • MV-4-11: 40 μL per well. The cells are incubated at room temperature for 10 minutes, then luminescence is read on Safire reader. The measured luminescence correlates directly with cell number, such that the reading as a function of compound concentration is used to determine the IC50 value.

| SMILES | turbidity threshold (L, M, H) 1.4 [1] | turbidity threshold (L, M, H) 4.5 [1] | turbidity threshold (L, M, H) 6.8 [1] | turbidity threshold (L, M, H) 7.4 [1] | IC50 (BCR-KIT/BaF3 cells) |
| --- | --- | --- | --- | --- | --- |
| COc1ccc(CNc2ncc(Cc3c[nH]c4ncc(C)cc34)cc2C)cn1 [Compound P-1554, (6-Methoxy-pyridin-3-ylmethyl)-[3-methyl-5-(5-methyl-1H-pyrrolo[2,3-b]pyridin-3-ylmethyl)-pyridin-2-yl]-amine] | H (high solubility if the threshold concentration is >250 μM) | H (high solubility if the threshold concentration is >250 μM) | M (moderate solubility if the threshold concentration is 31.3 μM to 250 μM) | M (moderate solubility if the threshold concentration is 31.3 μM to 250 μM) | > 0.1 µM |
| COc1ccc(CNc2ncc(Cc3c[nH]c4ncc(C)cc34)cc2F)cn1 [Compound P-1562, [3-Fluoro-5-(5-methyl-1H-pyrrolo[2,3-b]pyridin-3-ylmethyl)-pyridin-2-yl]-(6-methoxy-pyridin-3-ylmethyl)-amine] | H (high solubility if the threshold concentration is >250 μM) | H (high solubility if the threshold concentration is >250 μM) | M (moderate solubility if the threshold concentration is 31.3 μM to 250 μM) | M (moderate solubility if the threshold concentration is 31.3 μM to 250 μM) | > 0.1 µM |
| COc1ccc(CNc2ccc(Cc3c[nH]c4ncc(F)cc34)c(F)n2)cn1 [Compound P-1622, [6-Fluoro-5-(5-fluoro-1H-pyrrolo[2,3-b]pyridin-3-ylmethyl)-pyridin-2-yl]-(6-methoxy-pyridin-3-ylmethyl)-amine] | H (high solubility if the threshold concentration is >250 μM) | M (moderate solubility if the threshold concentration is 31.3 μM to 250 μM) | M (moderate solubility if the threshold concentration is 31.3 μM to 250 μM) | M (moderate solubility if the threshold concentration is 31.3 μM to 250 μM) | > 0.1 µM |
| COc1ncc(F)cc1CNc1ccc(Cc2c[nH]c3ncc(NC(C)=O)cc23)c(F)n1 [Compound P-1669, N-(3-{2-fluoro-6-[(5-fluoro-2-methoxy-pyridin-3-ylmethyl)-amino]-pyridin-3-ylmethyl}-1H-pyrrolo[2,3-b]pyridin-5-yl)-acetamide] | M (moderate solubility if the threshold concentration is 31.3 μM to 250 μM) | M (moderate solubility if the threshold concentration is 31.3 μM to 250 μM) | M (moderate solubility if the threshold concentration is 31.3 μM to 250 μM) | M (moderate solubility if the threshold concentration is 31.3 μM to 250 μM) | > 0.1 µM |
| CS(=O)(=O)Nc1cnc2[nH]cc(Cc3ccc(NCc4ccc(Cl)nc4)nc3F)c2c1 [Compound P-1679, N-(3-{6-[(6-Chloro-pyridin-3-ylmethyl)-amino]-2-fluoro-pyridin-3-ylmethyl}-1H-pyrrolo[2,3-b]pyridin-5-yl)-methanesulfonamide] | M (moderate solubility if the threshold concentration is 31.3 μM to 250 μM) | L (low solubility if the threshold concentration is <31.3 μM) | L (low solubility if the threshold concentration is <31.3 μM) | L (low solubility if the threshold concentration is <31.3 μM) | > 0.1 µM |
| Fc1cncc(CNc2ccc(Cc3c[nH]c4ncc(Cl)cc34)c(F)n2)c1 [Compound P-2001, [5-(5-Chloro-1H-pyrrolo[2,3-b]pyridin-3-ylmethyl)-6-fluoro-pyridin-2-yl]-(5-fluoro-pyridin-3-ylmethyl)-amine] | M (moderate solubility if the threshold concentration is 31.3 μM to 250 μM) | L (low solubility if the threshold concentration is <31.3 μM) | L (low solubility if the threshold concentration is <31.3 μM) | L (low solubility if the threshold concentration is <31.3 μM) | > 0.1 µM |
| Clc1cnc2[nH]cc(Cc3ccc(NCc4ccc(Cl)nc4)nc3)c2c1 [Compound P-2003] | H (high solubility if the threshold concentration is >250 μM) | M (moderate solubility if the threshold concentration is 31.3 μM to 250 μM) | L (low solubility if the threshold concentration is <31.3 μM) | L (low solubility if the threshold concentration is <31.3 μM) | < 0.1 µM |
| Fc1ccc(CNc2ccc(Cc3c[nH]c4ncc(Cl)cc34)cn2)cn1 [Compound P-2004, [5-(5-chloro-1H-pyrrolo[2,3-b]pyridin-3-ylmethyl)-pyridin-2-yl]-(6-fluoro-pyridin-3-ylmethyl)-amine] | H (high solubility if the threshold concentration is >250 μM) | M (moderate solubility if the threshold concentration is 31.3 μM to 250 μM) | M (moderate solubility if the threshold concentration is 31.3 μM to 250 μM) | M (moderate solubility if the threshold concentration is 31.3 μM to 250 μM) | < 0.1 µM |
| Cc1cnc2[nH]cc(Cc3ccc(NCc4ccc(C(F)(F)F)nc4)nc3)c2c1 [Compound P-2019, [5-(5-Methyl-1H-pyrrolo[2,3-b]pyridin-3-ylmethyl)-pyridin-2-yl]-(6-trifluoromethyl-pyridin-3-ylmethyl)-amine] | H (high solubility if the threshold concentration is >250 μM) | M (moderate solubility if the threshold concentration is 31.3 μM to 250 μM) | M (moderate solubility if the threshold concentration is 31.3 μM to 250 μM) | L (low solubility if the threshold concentration is <31.3 μM) | < 0.1 µM |
| COc1cccc(CNc2ncc(Cc3c[nH]c4ncc(Cl)cc34)s2)n1 [Compound P-2163, [5-(5-Chloro-1H-pyrrolo[2,3-b]pyridin-3-ylmethyl)-thiazol-2-yl]-(6-methoxy-pyridin-2-ylmethyl)-amine] |  |  |  |  | > 0.1 µM |
| Fc1cncc(CNc2ncc(Cc3c[nH]c4ncc(Cl)cc34)cn2)c1 [Compound P-2176, [5-(5-Chloro-1H-pyrrolo[2,3-b]pyridin-3-ylmethyl)-pyrimidin-2-yl]-(5-fluoro-pyridin-3-ylmethyl)-amine] |  |  |  |  | > 0.1 µM |
| CCS(=O)(=O)Nc1cc(F)cc(CNc2ccc(Cc3c[nH]c4ncc(C)cc34)c(F)n2)c1 [Compound P-2202, Ethanesulfonic acid (3-fluoro-5-{[6-fluoro-5-(5-methyl-1H-pyrrolo[2,3-b]pyridin-3-ylmethyl)-pyridin-2-ylamino]-methyl}-phenyl)-amide] |  |  |  |  | > 0.1 µM |
